Results from publication PMC12380353, “MK-8527 is a novel inhibitor of HIV-1 reverse transcriptase translocation with potential for extended-duration dosing” (PLOS Biology, 2025).
Where “and” joins values, the source holds several entries; their conditions need not be identical. Identical values can stand only once.

Columns and labels:
[1] = MK-8527-TP in PBMCs of rhesus monkeys after oral dosing; type: in vivo; settings: oral MK-8527 50 mg/kg
Experimental: The intracellular concentration of MK-8527-TP was determined by an LC–MS/MS assay. LC–MS/MS analysis was performed on a Acquity UPLC system (Waters Corporation; Milford, MA, USA) interfaced to an API-5500 mass spectrometer using a TurboIonSpray source (Sciex, Framingham, MA, USA) in positive ionization mode. Separation of MK-8527-TP was achieved on a BioBasic AX column (2.1 × 100 mm, 5 µm; Thermo Fisher Scientific) at 45 °C using gradient elution with mobile phases consisting of 70% water to 30% acetonitrile containing 10 mM ammonium acetate (solvent A) and 70% water to 30% acetonitrile containing 20 mM ammonium acetate, 1.5% ammonium hydroxide (NH4OH) (v/v), and 10% isopropyl alcohol (IPA) (v/v) (solvent B) at a flow rate of 0.75 mL/min. The chromatography was run as follows: The column was equilibrated with 97% A, and after sample injection 97% A was maintained for 0.10 min before concentration was increased linearly to 100% B until 3.00 min, followed by a hold at 100% B until 3.50 min. The column was then washed by alternating linear ramps from 97% A to 100% B up to 4.10 min, then returned to the initial conditions at 4.30 min and kept for an additional 1.20 min. The total run time was 5.50 min. Quantification was performed by monitoring the transitions of m/z 548.9 to 169.1 for MK-8527-TP. The method was linear across a concentration range of 1–5,000 nM in cell samples across species. The method’s lower limit of quantification was between 1 and 5 nM depending on the assay volumes of cell suspension. Analyte concentrations in cell samples across species were determined from the standard curves using linear regression with 1/×2 weighting.
PBMCs were isolated from heparinized monkey blood using the following protocol. To begin, blood samples (approximately 12–18 mL) were diluted with an equal volume of calcium- and magnesium-free PBS at pH 7.4 and gently mixed. Separation of PBMCs from the diluted blood was achieved using 50 mL AccuSpin tubes loaded with Histopaque-1077 lymphocyte separation medium (both: Thermo Fisher Scientific). Samples were centrifuged at 800g for 15 min at room temperature. The resulting plasma/buffer supernatant was removed without disturbing the PBMC interface. Next, the PBMC interface was removed with a pipette, and the cells were washed by the addition of calcium- and magnesium-free PBS (pH 7.4) to a final volume of 15 mL. PBMCs were harvested by centrifugation at 250g for 20 min at room temperature. The supernatant was decanted with care taken not to disturb the PBMC pellet, and the wash step was repeated once (250 × g for 15 min). After the second wash, the cell pellet was resuspended in 7 mL of calcium- and magnesium-free PBS, and an aliquot was removed for cell counting. PBMCs were harvested from the remaining cell suspension by centrifugation at 250g for 15 min at room temperature. The supernatant was removed, and the cell pellet was resuspended in 0.1–0.3 mL of methanol and water at a 70:30 ratio. Cell suspensions were stored at […] prior to analysis.

human DNA polymerase β = human DNA polymerase β (Homo sapiens, UniProt P06746); test: Human DNA polymerase β inhibition assay; type: biochemical; settings: highest concentration tested 200 µM
Experimental: The activities of human DNA polymerases α, β, and γ were measured in radiolabeled nucleotide incorporation assays. TP was prepared as a 10-point titration with 3-fold serial dilution in water. Reaction buffers for the DNA polymerase α and β assays both contained 20 mM Tris pH 7.5, 10 mM MgCl2, 50 μM EDTA, 200 μg/mL bovine serum albumin (BSA), 2 mM dithiothreitol (DTT), 1.6 μM each of dNTP (dATP, dCTP, dGTP, and dTTP), 20 μCi/mL [α33P]dATP, 0.1 mg/mL gapped activated fish sperm DNA template, test compound, and 0.005 U/μL DNA polymerase α or 0.0025 U/μL DNA polymerase β. The reaction buffer for DNA polymerase γ contained 20 mM Tris pH 8, 10 mM MgCl2, 50 mM KCl, 100 μg/mL BSA, 2 mM β-mercaptoethanol, 10 μM of each dNTP (dATP, dCTP, dGTP, and dTTP), 20 μCi/mL [α33P]dATP, 0.04 mg/mL gapped activated fish sperm DNA template, test compound, and 0.0003 μg/μL DNA polymerase γ. The 50-μL reactions were incubated at room temperature for 30 min (for β and γ) or 90 min (for α) before terminating with the addition of 50 μL 500 mM EDTA. The reaction mixtures were transferred to a Millipore DE81 filter plate (EMD Millipore; Hayward, CA), washed with 0.5 M sodium phosphate pH 7.0, and dried. After addition of 40 μL scintillant to each well, the incorporation of labeled dATP was determined with a microplate counter (TopCount NXT HTS; PerkinElmer, Shelton, CA, USA).

[2] = tested on: panel of 114 enzyme and receptor binding assays; test: Off-target panel of 114 enzyme and receptor-binding assays; settings: for Off-target activity: 10 μM, panel of 114 assays; for IC50: tested at 10 µM, 114 assays, read-out: IC50 in all off-target assays
Experimental: MK-8527 and MK-8527-TP were evaluated at 10 µM final concentration at Eurofins Panlabs (Taipei, Taiwan) for activity against a panel of 114 enzyme, radioligand binding, and cellular assays, including 70 G-protein coupled receptor, 13 ion channel, 7 kinase, 7 nuclear hormone receptor, 6 transporter, 4 protease, 2 neurotransmitter metabolism, 2 lipid metabolism, 2 oxidoreductase, and 1 phosphodiesterase assays.

HIV-2ROD = test: Cytoprotection assay in CEM-SS cells, HIV-2; type: cell-based; settings: Human immunodeficiency virus 2, 144 h, 6 days, read-out: Antiviral potency as IC50, HIV-2 – CEM-SS cells
Experimental: The antiviral activity of MK-8527 against HIV-1 and HIV-2 was determined in a cytoprotection assay in CEM-SS cells at ImQuest BioSciences (Fredrick, MD, USA). Briefly, CEM-SS cells (National Institute of Health AIDS Research and Reference Reagent Program) were passaged in RPMI 1640 supplemented with 10% heat-inactivated FBS, 2 mM L-glutamine, 100 U/mL penicillin and 100 µg/mL streptomycin prior to use in the antiviral assay. On the day preceding the assay, the cells were split 1:2 to ensure they were in an exponential growth phase at the time of infection. The cells were resuspended at 2.5 × 10^3 cells per well in cell culture medium and added to the drug-containing microtiter plates at 50 µL per well. MK-8527 was tested in triplicate for each experiment, with 12 test concentrations added at 100 µL per well.
Lymphocyte-tropic virus strains HIV-1IIIB or HIV-2ROD (NIH AIDS Research and Reference Reagent Program) were diluted into tissue culture medium such that the amount of virus added to each well in a volume of […] corresponded to the amount determined to yield 85% to 95% cell killing in the untreated virus control wells at 6–7 days. Virus was added immediately after cells were added to the 96-well microtiter plates.
The IC50 for MK-8527 antiviral activity was determined using 4-parameter curve fit calculations.

SMILES | Arithmetic Mean Concentration in PBMCs ([1]; 2 hr) | Concentration in PBMCs, individual subjects ([1]; 2 hr) | Arithmetic Mean Concentration in PBMCs ([1]; 24 hr) | Concentration in PBMCs, individual subjects ([1]; 24 hr) | Arithmetic Mean Concentration in PBMCs ([1]; 72 hr) | Concentration in PBMCs, individual subjects ([1]; 72 hr) | Arithmetic Mean Concentration in PBMCs ([1]; 168 hr) | Concentration in PBMCs, individual subjects ([1]; 168 hr) | Inhibitory activity (human DNA polymerase β) | Off-target activity [2] | IC50 [2] | IC50 (HIV-2ROD)
C#C[C@]1(COP(=O)(O)OP(=O)(O)OP(=O)(O)O)O[C@@H](n2ccc3c(N)nc(Cl)nc32)C[C@@H]1O [MK-8527-TP] | 11.11 µM | 18.77 µM and 6.47 µM and 11.31 µM | 15.02 µM | 15.33 µM and 20.00 µM and 11.04 µM | 2.78 µM | 5.67 µM and 2.28 µM and 1.67 µM | 0.66 µM | 1.83 µM and 0.38 µM and 0.40 µM | no inhibitory activity | no off-target activities | > 10 µM | 
C#C[C@]1(CO)O[C@@H](n2ccc3c(N)nc(Cl)nc32)C[C@@H]1O [Compound 12, (2R,3S,5R)-5-(4-amino-2-chloro-7H-pyrrolo[2,3-d]pyrimidin-7-yl)-2-ethynyl-2-(hydroxymethyl)tetrahydrofuran-3-ol] |  |  |  |  |  |  |  |  |  | no off-target activities | > 10 µM | 7 pM
